Reference: ChEMBL document CHEMBL1142849, “Synthesis and in vitro and in vivo antimycobacterial activity of isonicotinoyl hydrazones” (Bioorg Med Chem Lett, 2005)
Values after ≈ are worked out from the molar mass of the structure shown.

Experiments:
[1] = test system: Mycobacterium tuberculosis; assay: In vitro minimal inhibitory concentration against Mycobacterium tuberculosis [H37Rv stain]; assay type: functional
[2] = test system: Mycobacterium tuberculosis; assay: In vitro inhibitory concentration against Mycobacterium tuberculosis [H37Rv stain]; assay type: functional, organism-based
[3] = test system: Mycobacterium tuberculosis; assay: Log CFU in lungs of mice infected with H37Rv stain of Mycobacterium tuberculosis after administration at 25 mg/Kg; assay type: functional, Lung

Structure (SMILES)	MIC [1]	IC50 [2]	Log CFU [3]
C/C(=N/NC(=O)c1ccncc1)c1cccc(CN(c2ccccc2)c2ccccc2)c1O	3.57 µM (≈ 1.56 µg/mL)	> 14.3 µM	
C/C(=N/NC(=O)c1ccncc1)c1cccc(CN2CCCC2)c1O	4.61 µM (≈ 1.56 µg/mL)	> 18.5 µM	
CCCCN(CCCC)Cc1cccc(/C(C)=N\NC(=O)c2ccncc2)c1O	3.93 µM (≈ 1.56 µg/mL)	> 15.8 µM	
C/C(=N/NC(=O)c1ccncc1)c1cccc(CN2CCN(Cc3ccccc3)CC2)c1O	0.88 µM (≈ 0.39 µg/mL)	> 14.1 µM	
C/C(=N/NC(=O)c1ccncc1)c1cccc(CN(C)C)c1O	2.49 µM (≈ 0.778 µg/mL)	> 20 µM	
C/C(=N/NC(=O)c1ccncc1)c1cccc(CN2CCCCC2)c1O	4.43 µM (≈ 1.56 µg/mL)	> 17.7 µM	
C/C(=N/NC(=O)c1ccncc1)c1cccc(CN(Cc2ccccc2)Cc2ccccc2)c1O	3.36 µM (≈ 1.56 µg/mL)	> 13.5 µM	
C/C(=N/NC(=O)c1ccncc1)c1cccc(CN2CCN(C)CC2)c1O	8.61 µM (≈ 3.16 µg/mL)	> 17.2 µM	
NNC(=O)c1ccncc1 [ISONIAZID]	2.04 µM (≈ 0.28 µg/mL)	> 45.6 µM	6.38
C/C(=N/NC(=O)c1ccncc1)c1cccc(CN2CCNCC2)c1O	0.56 µM (≈ 0.198 µg/mL)	> 17.7 µM	6.08
C/C(=N/NC(=O)c1ccncc1)c1cccc(CN2CCN(c3cc4c(cc3F)c(=O)c(C(=O)O)cn4C3CC3)CC2)c1O	1.3 µM (≈ 0.778 µg/mL)	> 10.4 µM	
CCN(CC)Cc1cccc(/C(C)=N\NC(=O)c2ccncc2)c1O	2.29 µM (≈ 0.78 µg/mL)	> 18.4 µM	
CCn1cc(C(=O)O)c(=O)c2cc(F)c(N3CCN(Cc4cccc(/C(C)=N\NC(=O)c5ccncc5)c4O)C(C)C3)c(F)c21 (centres undefined)	1.26 µM (≈ 0.779 µg/mL)	> 10.1 µM	
C/C(=N/NC(=O)c1ccncc1)c1cccc(CN2CCN(c3ccc(F)cc3)CC2)c1O	0.87 µM (≈ 0.389 µg/mL)	> 14 µM	
C/C(=N/NC(=O)c1ccncc1)c1cccc(CN2CCN(c3ccccn3)CC2)c1O	0.9 µM (≈ 0.387 µg/mL)	> 14.5 µM	
C/C(=N/NC(=O)c1ccncc1)c1cccc(CN2CCOCC2)c1O	2.2 µM (≈ 0.78 µg/mL)	> 17.6 µM	
